{
  "source": "patent US20150290240A1",
  "about": "(Fred Hulchinson Cancer Research Center, priority 2012, published 2015)",
  "key": {"cardiac troponin I": {"tested_on": "cardiac troponin I", "assay": "Plasma cardiac troponin I by ELISA after LAD ligation and 2 hour reperfusion", "format": "in vivo, mice", "conditions": "end of 2 hour reperfusion", "description": "(§1) For the myocardial infarction model, open chest ligation of the left descending coronary artery (LAD ligation) was performed in mice. At 55 minutes post initiation of ischemia, either vehicle or test agent was injected into the femoral vein of each mouse. The heart muscle was reperfused by releasing the ligature at 60 minutes post initiation of ischemia. Mice were then sacrificed at either 2 hours or 2 days post reperfusion for infarct size measurement and blood analysis or heart function assays, respectively, as described below.\nTo provide an independent means of testing for improvement, the level of a heart specific protein, cardiac troponin I, was assessed in the blood of the animals after the 2 hour reperfusion period. Five minutes prior to reperfusion, three groups of mice were given 200 μg/kg NaHSe, 50 μg/kg NaHSe, or saline by I.V. injection through the femoral vein. At the end of the 2 hour reperfusion, blood was collected and plasma cardiac troponin I was measured by ELISA."}, "[1]": {"tested_on": "mouse model of heart attack (heart function)", "assay": "Echocardiography 2 days post the heart attack procedure", "format": "in vivo, mice", "conditions": "800 μg/kg; 48 hours of reperfusion after 60 min LAD ligation; vs saline", "description": "as §1\nTo further test the hypothesis that NaHSe improves outcome following myocardial infarction, mice were survived for 2 days post the heart attack procedure and then subjected to echocardiography."}, "[2]": {"tested_on": "glutathione peroxidase 2 (GPX-2)", "assay": "Antibody staining of heart sections for glutathione peroxidase 2", "format": "in vivo, mice", "conditions": "800 μg/kg; compared to saline and sham (no heart attack) animals", "description": "as §1\nTherefore, the hypothesis that the therapeutic value of sodium selenide is its accumulation in cardiomycytes during reperfusion for the synthesis of selenoproteins, such as glutathione peroxidase, was tested. Heart sections from animals that were saline treated or NaHSe (800 μg/kg) treated were stained with an antibody specific for the selenoprotein glutathione peroxidase 2 (GPX-2)."}, "[3]": {"tested_on": "mouse model of heart attack (myocardial ischemia and reperfusion)", "assay": "Infarct size by morphometry (TTC and Evans blue) after LAD ligation and 2 hours of reperfusion", "format": "in vivo, mice", "description": "as §1\nIn order to examine the effect of NaHSe on myocardial infarct size, mice were subjected to LAD ligation, and after 2 hours of reperfusion, infarct size was measured by morphometry (FIG. 1). Six groups of mice were utilized in this study, including a saline vehicle group and five test groups that received 50, 200, 800, 1600 and 2400 μg/kg of NaHSe. To be certain that all animals in the study were treated in a similar way, the area at risk (AAR) as a proportion of the left ventricle was determined (FIG. 1, left panel).\nArea at risk and infarct size (Inf) were measured using the specific dyes TTC and Evans blue. Processed images were generated in an unbiased way by setting constant thresholds and allowing Photoshop® to generate the images that were quantitated to generate FIG. 1."}, "[4]": {"tested_on": "neutrophils in the myocardium", "assay": "Neutrophil count in heart sections following the heart attack procedure", "format": "in vivo, mice", "conditions": "vs saline treated animals", "description": "as §1\nIn order to determine whether NaHSe decreased inflammation in the hearts of animals following the heart attack procedure, neutrophils were counted in sections of hearts of saline and NaHSe treated animals."}, "[5]": {"assay": "Oxidation of selenide solutions in water or glutathione, observed visually", "format": "physicochemical", "conditions": "50 mM selenide in 150 mM GSH vs in water; 8 minutes immediately following preparation"}},
  "data": [
    {"molecule": "[SeH2]", "note": "[NaHSe]", "values": [
      {"measurement": "plasma cardiac troponin I compared to saline control", "setting": "cardiac troponin I; 50 μg/kg I.V. 5 min prior to reperfusion", "result": "statistically significant decrease"},
      {"measurement": "plasma cardiac troponin I compared to saline control", "setting": "cardiac troponin I; 200 μg/kg I.V. 5 min prior to reperfusion", "result": "statistically significant decrease"},
      {"measurement": "fractional shortening", "setting": "[1]", "result": "statistically significant improvement"},
      {"measurement": "left ventricular ejection fraction", "setting": "[1]", "result": "statistically significant improvement"},
      {"measurement": "GPX-2 antibody staining of heart sections", "setting": "[2]", "result": "striking increase"},
      {"measurement": "benefit relative to infarct size vs saline", "setting": "[3]; 800 μg/kg (0.8 mg/kg) at reperfusion, selenide vs selenite comparison (FIG. 6)", "result": "provided benefit"},
      {"measurement": "reduction in infarct size in comparison to vehicle alone", "setting": "[3]; 800 μg/kg I.V. femoral vein 5 min prior to reperfusion, 60 min LAD ligation, 2 hours reperfusion", "result": 88, "unit": "%"},
      {"measurement": "infarct size vs saline group", "setting": "[3]; 50, 200, 800, 1600 and 2400 μg/kg I.V. 5 min prior to reperfusion, 2 hours reperfusion", "result": "statistically significant dose dependent decreases"},
      {"measurement": "accumulation of neutrophils in the myocardium", "setting": "[4]", "result": "significantly reduced"},
      {"measurement": "oxidation of selenide (dark oxidized forms in solution)", "setting": "[5]", "result": "reduced levels of oxidation"}
    ]}
  ]
}
